The nature of this series: recombinant barcode read abundance after kanamycin selection (control-corrected) (log10(CPM+1)); higher = more efficient recombination; sequences stand for … in AGTGCAGAGAAAATCGGCCAGTTTTCTCTGCCTGCAGTCCGCATGCCGT…AGATTTATGCAGCGGACTGCCTTTCTCCCAAAGTGATAAACCGGACAGTATCATGGACCGGTTTTCCCGGTAATCCGTATTTGCAAGGTTGGTTTCACT; site = the 11-nt target. A digest of the protocol:
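Recombination efficiency was calculated from barcode counts at recombinant junctions, normalized to counts per million, averaged and corrected by the control. Each value is given as log10(CPM+1). The constructs were Gibson-cloned oligos (promoter, target, barcode, J23119-driven first 104 bridge RNA bases) in a vector with the remaining 73 bp and a T7-inducible recombinase, co-electroporated into E. coli with a donor plasmid and plated in duplicate on chloramphenicol/ampicillin LB agar (control) or chloramphenicol/ampicillin/kanamycin with 0.1 mM IPTG.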
Consider “TAGTACTCTTGGGTTCTAACCTGTTGCTA (site TAGTACTCTTA)”, for which the “recombinant barcode read abundance (log10)” value worked out at 1.58.

Turning to “TAGTACTCTTGGGTTCTAACCTGTTGCTT (site TAGTACTCTAA)”, the “recombinant barcode read abundance (log10)” value was 1.14.

On to “TAGTACTCTTGGGTTCTAACCTGTTGCTT (site TAGTACTCTCA)”, for which the “recombinant barcode read abundance (log10)” value is 0.0325.

For “TAGTACTCTTGGGTTCTAACCTGTTGCTT (site TAGTACTCTGA)”, the “recombinant barcode read abundance (log10)” value was found to be 0.199. With “TAGTACTCTTGGGTTCTAACCTGTTGCTT (site TAGTACTCTTA)” the figure was 0.0259. On to “TAGTATCCTTGGGTTCTAACCTGTTGCGT (site TAGTATCCTAC)”, for which the “recombinant barcode read abundance (log10)” value came out at 1.87. Consider “TAGTATCCTTGGGTTCTAACCTGTTGCGT (site TAGTCTCCTAC)”, for which the “recombinant barcode read abundance (log10)” value was 0.0759. With “TAGTATCCTTGGGTTCTAACCTGTTGCGT (site TAGTGTCCTAC)” the figure was 0.0306; with “TAGTATCCTTGGGTTCTAACCTGTTGCGT (site TAGTTTCCTAC)”, 0.21. Under “TAGTCCACTTGGGTTCTAACCTGTTGCTA (site AAGTCCACTAA)” stands 0.239. Consider “TAGTCCACTTGGGTTCTAACCTGTTGCTA (site TAGTCCACTTA)”, for which the “recombinant barcode read abundance (log10)” value is 1.15. Take “TAGTCCGCTTGGGTTCTAACCTGTTGCCG (site TAGCCCTCTCG)”: the “recombinant barcode read abundance (log10)” value was found to be 0.214. With “TAGTCCGCTTGGGTTCTAACCTGTTGCCG (site TAGTCCGCTCG)” the figure was 0.446. With “TAGTCCTCTTGGGTTCTAACCTGTTGCTG (site TAGTCCTCTAA)” the figure was 0.048; with “TAGTCCTCTTGGGTTCTAACCTGTTGCTG (site TAGTCCTCTCA)”, 1.02; with “TAGTCCTCTTGGGTTCTAACCTGTTGCTG (site TAGTCCTCTGA)”, 0.14. Under “TAGTCCTCTTGGGTTCTAACCTGTTGCTG (site TAGTCCTCTTA)” stands 0.185; under “TAGTCTTCTTGGGTTCTAACCTGTTGCGT (site AAGTATTCTAC)”, 0.066; under “TAGTCTTCTTGGGTTCTAACCTGTTGCGT (site TAGTCTTCTAC)”, 0.681. On to “TAGTGGTCTTGGGTTCTAACCTGTTGCAT (site TAGTGGTCTAT)”, for which the “recombinant barcode read abundance (log10)” value was determined as 2.04. Under “TAGTGGTCTTGGGTTCTAACCTGTTGCAT (site TAGTGGTCTTA)” stands 0.215; under “TAGTGTCCTTGGGTTCTAACCTGTTGCCA (site TAGTGTCCTTG)”, 0.357; under “TAGTGTCCTTGGGTTCTAACCTGTTGCCA (site TGGTGTGCTTG)”, 0.142. Under “TAGTGTGCTTGGGTTCTAACCTGTTGCGT (site TAGTGTGCTAA)” stands 0.0341; under “TAGTGTGCTTGGGTTCTAACCTGTTGCGT (site TAGTGTGCTAC)”, 1.66. “TAGTGTTCTTGGGTTCTAACCTGTTGCAT (site TAGTGTCCTAT)”: the “recombinant barcode read abundance (log10)” value amounted to 0.109. Regarding “TAGTGTTCTTGGGTTCTAACCTGTTGCAT (site TAGTGTTCTAT)”, the “recombinant barcode read abundance (log10)” value is 0.918. With “TAGTTAGCTTGGGTTCTAACCTGTTGCCA (site TAGTTAGCTAG)” the figure was 0.0117; with “TAGTTAGCTTGGGTTCTAACCTGTTGCCA (site TAGTTAGCTCG)”, 0.17. Take “TAGTTAGCTTGGGTTCTAACCTGTTGCCA (site TAGTTAGCTGG)”: the “recombinant barcode read abundance (log10)” value is 0.0516.

Turning to “TAGTTAGCTTGGGTTCTAACCTGTTGCCA (site TAGTTAGCTTG)”, the “recombinant barcode read abundance (log10)” value worked out at 0.418. With “TAGTTCACTTGGGTTCTAACCTGTTGCAT (site TAGATCACTAT)” the figure was 0.0793. With “TAGTTCACTTGGGTTCTAACCTGTTGCAT (site TAGCTCACTAT)” the figure was 0.0603; with “TAGTTCACTTGGGTTCTAACCTGTTGCAT (site TAGGTCACTAT)”, 0.159. On to “TAGTTCACTTGGGTTCTAACCTGTTGCAT (site TAGTTCACTAT)”, for which the “recombinant barcode read abundance (log10)” value is 0.382.

Turning to “TAGTTTACTTGGGTTCTAACCTGTTGCAG (site ACTCCAGCTAG)”, the “recombinant barcode read abundance (log10)” value is 0.294. For the sequence “TAGTTTACTTGGGTTCTAACCTGTTGCAG (site TAGTTTACTCT)”, the “recombinant barcode read abundance (log10)” value was 0.272. For “TAGTTTACTTGGGTTCTAACCTGTTGCCA (site TAGTTAACTTG)”, the “recombinant barcode read abundance (log10)” value stood at 0.0268. With “TAGTTTACTTGGGTTCTAACCTGTTGCCA (site TAGTTCACTTG)” the figure was 0.109; with “TAGTTTACTTGGGTTCTAACCTGTTGCCA (site TAGTTGACTTG)”, 0.0764; with “TAGTTTACTTGGGTTCTAACCTGTTGCCA (site TAGTTTACTTG)”, 0.334.

Take “TATAAAACTTGGGTTCTAACCTGTTGCCT (site TATAAAACTAG)”: the “recombinant barcode read abundance (log10)” value is 0.0338. With “TATAAAACTTGGGTTCTAACCTGTTGCCT (site TATACAACTAG)” the figure was 0.0401. Under “TATAAAACTTGGGTTCTAACCTGTTGCCT (site TATAGAACTAG)” stands 0.0357.

For the sequence “TATAAAACTTGGGTTCTAACCTGTTGCCT (site TATATAACTAG)”, the “recombinant barcode read abundance (log10)” value was determined as 0.697. With “TATAACACTTGGGTTCTAACCTGTTGCCG (site CTACTATCTGC)” the figure was 0.0288; with “TATAACACTTGGGTTCTAACCTGTTGCCG (site TATAACACTCG)”, 0.246. For “TATAACTCTTGGGTTCTAACCTGTTGCCT (site AATAACTCTAG)”, the “recombinant barcode read abundance (log10)” value amounted to 0.0281.

In the case of “TATAACTCTTGGGTTCTAACCTGTTGCCT (site CATAACTCTAG)”, the “recombinant barcode read abundance (log10)” value was 0.198. With “TATAACTCTTGGGTTCTAACCTGTTGCCT (site GATAACTCTAG)” the figure was 0.0978.

“TATAACTCTTGGGTTCTAACCTGTTGCCT (site TATAACTCTAG)”: the “recombinant barcode read abundance (log10)” value is 0.549.

Consider “TATACTGCTTGGGTTCTAACCTGTTGCCT (site TATACTACTAG)”, for which the “recombinant barcode read abundance (log10)” value is 0.0148.

“TATACTGCTTGGGTTCTAACCTGTTGCCT (site TATACTGCTAG)”: the “recombinant barcode read abundance (log10)” value was determined as 0.0304. For “TATAGAACTTGGGTTCTAACCTGTTGCCT (site TATAAAACTAG)”, the “recombinant barcode read abundance (log10)” value was 0.119. On to “TATAGAACTTGGGTTCTAACCTGTTGCCT (site TATACAACTAG)”, for which the “recombinant barcode read abundance (log10)” value came to 0.0987. For “TATAGAACTTGGGTTCTAACCTGTTGCCT (site TATAGAACTAG)”, the “recombinant barcode read abundance (log10)” value turned out to be 0.192. Under “TATAGAACTTGGGTTCTAACCTGTTGCCT (site TATATAACTAG)” stands 0.015; under “TATCCGACTTGGGTTCTAACCTGTTGCCC (site TATCCGACTAG)”, 0.238.

“TATCCGACTTGGGTTCTAACCTGTTGCCC (site TATCCGACTCG)”: the “recombinant barcode read abundance (log10)” value stood at 0.146. Under “TATCCGACTTGGGTTCTAACCTGTTGCCC (site TATCCGACTGG)” stands 0.688; under “TATCCGACTTGGGTTCTAACCTGTTGCCC (site TATCCGACTTG)”, 0.125; under “TATCGCACTTGGGTTCTAACCTGTTGCCT (site TATCGCACTAG)”, 0.0277. With “TATCGCACTTGGGTTCTAACCTGTTGCCT (site TATGGGACTAG)” the figure was 0.0986; with “TATCGGGCTTGGGTTCTAACCTGTTGCAG (site ATGGACCCTGA)”, 0.0316; with “TATCGGGCTTGGGTTCTAACCTGTTGCAG (site TATCGGGCTCT)”, 1.57.

For “TATCGTCCTTGGGTTCTAACCTGTTGCAT (site TACCGTCCTAT)”, the “recombinant barcode read abundance (log10)” value amounted to 0.0483. For the sequence “TATCGTCCTTGGGTTCTAACCTGTTGCAT (site TATCGTCCTAT)”, the “recombinant barcode read abundance (log10)” value stood at 0.803. With “TATCTGACTTGGGTTCTAACCTGTTGCCT (site TATCAGACTTG)” the figure was 0.0204; with “TATCTGACTTGGGTTCTAACCTGTTGCCT (site TATCTGACTAG)”, 0.202. With “TATGCTACTTGGGTTCTAACCTGTTGCAT (site AATGCTACTAT)” the figure was 1.03; with “TATGCTACTTGGGTTCTAACCTGTTGCAT (site TATGCTACTAT)”, 0.371; with “TATGCTTCTTGGGTTCTAACCTGTTGCTT (site TATGCTTCTAA)”, 0.0973. Under “TATGCTTCTTGGGTTCTAACCTGTTGCTT (site TATGGTTCTAG)” stands 0.0104; under “TATGGGTCTTGGGTTCTAACCTGTTGCCT (site TATGGGTCTAG)”, 1.04; under “TATGGGTCTTGGGTTCTAACCTGTTGCCT (site TGTGGGTCTAG)”, 0.209. For the sequence “TATGTAGCTTGGGTTCTAACCTGTTGCCG (site TATGTAGCTAG)”, the “recombinant barcode read abundance (log10)” value is 0.486. With “TATGTAGCTTGGGTTCTAACCTGTTGCCG (site TATGTAGCTCG)” the figure was 1.04.

The values are drawn from the supplement of paper PMC11208160.
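Note: IS621 recombinase and bridge RNA in Escherichia coli cells.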
